Columns and labels:
Type in all cases: functional
Thrips tabaci = assay: Thrips luring activity against female Thrips tabaci (onion thrips) assessed as ratio of thrips in baited traps to unbaited traps during field trapping study
Thrips obscuratus [1] = assay: Thrips luring activity against male New Zealand Thrips obscuratus (flower thrips) assessed as ratio of thrips in baited traps to unbaited traps during field trapping study
Thrips obscuratus [2] = assay: Thrips luring activity against female New Zealand Thrips obscuratus (flower thrips) assessed as ratio of thrips in baited traps to unbaited traps during field trapping study

Compound | Ratio (Thrips tabaci) | Ratio (Thrips obscuratus [1]) | Ratio (Thrips obscuratus [2])
CC(=O)c1ccccc1N [2-AMINOACETOPHENONE] | 6 | 26.7 | 20.7
OCCc1ccncc1 [4-(2-HYDROXYETHYL)PYRIDINE] | 1.3 | 0 | 0
O=Cc1ccncc1 [4-FORMYLPYRIDINE] | 1.6 | 4.9 | 7.9
CC(=O)/C=C/C1C(C)=CCCC1(C)C (stereo not drawn) [ALPHA-IONONE] | 1.3 | 0 | 1.8
COc1ccc(C=O)cc1 [ANISALDEHYDE] | 4 | 22.6 | 26.2
O=Cc1ccccc1 [BENZALDEHYDE] | 4 | 3.6 | 5
CC(=O)/C=C/C1=C(C)CCCC1(C)C [BETA-IONONE] | 2.6 | 3.8 | 1.8
ClC(Cl)Cl [CHLOROFORM] | 1.1 | 10.1 | 0
CC/C=C\CC1=C(C)CCC1=O [CIS-JASMONE] | 1.2 | 24.5 | 42.1
CCC(=O)c1ccncc1 [ETHYL 4-PYRIDYLKETONE] | 13.5 | 0 | 19.4
CCOC(=O)c1ccccc1N [ETHYL ANTHRANILATE] | 1.1 | 0.6 | 1.6
CCOC(=O)c1ccccc1 [ETHYL BENZOATE] | 2.1 | 24.8 | 35.4
CCOC(=O)c1ccncc1 [ETHYL ISONICOTINATE] | 30.8 | 28.5 | 31.6
CCOC(=O)C1CCNCC1 [ETHYL ISONIPECOTATE] | 4 | 0 | 0
CCOC(=O)c1cccnc1 [ETHYL NICOTINATE] | 3.1 | 84.8 | 157.6
CCOC(=O)c1ccccn1 [ETHYL PICOLINATE] | 2.8 | 5.9 | 4.1

Compound | Ratio (Thrips tabaci) | Ratio (Thrips obscuratus [1]) | Ratio (Thrips obscuratus [2])
CCOC(=O)c1ccccc1O [ETHYL SALICYLATE] | 3 | 48.5 | 32.6
CCOC(=O)c1ccnc(Cl)c1 [ETHYL-2-CHLOROPYRIDINE-4-CARBOXYLATE] | 1.7 | 19.3 | 15.1
CCCCCCOC(=O)c1ccncc1 [ISONICOTINIC ACID HEXYL ESTER] | 1.2 | 0 | 0
N#Cc1ccncc1 [ISONICOTINONITRILE] | 2.4 | 19.9 | 0
CC(C)OC(=O)c1ccncc1 [ISOPROPYL ISONICOTINATE] | 8.8 | 0 | 9
CC(=O)c1ccncc1 [METHYL 4-PYRIDYLKETONE] | 7.6 | 10.3 | 0
COC(=O)c1ccccc1N [METHYL ANTHRANILATE] | 3.5 | 22.1 | 28.3
COC(=O)c1ccccc1 [METHYL BENZOATE] | 6.6 | 50.5 | 49.1
COC(=O)c1ccncc1 [METHYL ISONICOTINATE] | 18.9 | 5.1 | 44.1
CC/C=C\CC1C(=O)CCC1CC(=O)OC (stereo unspecified) [METHYL JASMONATE] | 0.7 | 0.9 | 0.8
COC(=O)c1ccccc1O [METHYL SALICYLATE] | 4 | 13.3 | 24.8
CCCCCCCCCCOC(=O)c1ccncc1 [N-DECYL ISONICOTINATE] | 6.8 | 0 | 14.9
CCCOC(=O)c1ccncc1 [N-PROPYL ISONICOTINATE] | 15.4 | 0 | 9
OCCc1ccccc1 [PHENYLETHYL ALCOHOL] | 3.8 | 9.5 | 9.8
c1cc(C2OCCO2)ccn1 [PYRIDINE, 4-(1,3-DIOXALAN-2-YL)] | 5.3 | 20.4 | 16.6
O=Cc1ccccc1O [SALICYLADEHYDE] | 1.9 | 15.7 | 20.7
